Measurements as given in US20040110821A1, “GAL3 receptor antagonists for the treatment of affective disorders” (priority 2002, published 2004).

Columns and labels:
[1] = biological target: T1, human 5HT1A receptor (Homo sapiens, UniProt P08908); assay: Radioligand binding at 5-HT1A receptor; details: read-out: h5HT1A Ki
T1 construct: expressed in transfected cells; host or cells: COS-7 cells, transient, vector pCEXV-3
Procedure: 5-HT1r Receptor: The cDNA corresponding to the 5-HT1A receptor open reading frames and variable non-coding 5′- and 3′-regions, was cloned into the eukaryotic expression vector pCEXV-3. These constructs were transfected transiently into COS-7 cells by the DEAE-dextran method (Cullen, 1987), and harvested after 72 hours. Radioligand binding assays were performed as described above for the 5-HT2A receptor, except that ^3H-8-OH-DPAT was used as the radioligand and nonspecific binding was determined by the addition of 10 μM mianserin.
Binding data were analyzed using nonlinear regression and statistical techniques available in the GraphPAD Prism package (San Diego, Calif.). Enzymatic assay data were derived from a standard curve of reference compound data.

[2] = test system: Male albino Sprague-Dawley rats; assay: Rat Social Interaction Test (SIT); format: in vivo; details: for overall profile in the Social Interaction Test (conclusion in words): rat, in vivo
Procedure: Rats were allowed to acclimate to the animal care facility for 5 days and were housed singly for 5 days prior to testing. Animals were handled for 5 minutes per day. The design and procedure for the Social Interaction Test was carried out as previously described by Kennett, et al. (1997). On the test day, weight matched pairs of rats (±5%), unfamiliar to each other, were given identical treatments and returned to their home cages. Animals were randomly divided into 5 treatment groups, with 5 pairs per group, and were given one of the following i.p. treatments: Example 92 (10, 30 or 100 mg/kg), vehicle (1 ml/kg) or chlordiazepoxide (5 mg/kg). Dosing was 1 hour prior to testing. Rats were subsequently placed in a white perspex test box or arena (54×37×26 cm), whose floor was divided up into 24 equal squares, for 15 minutes. An air conditioner was used to generate background noise and to keep the room at approximately 74° F. All sessions were videotaped using a JVC camcorder (model GR-SZ1, Elmwood Park, N.J.) with either TDK (HG ultimate brand) or Sony 30 minute videocassettes. All sessions were conducted between 1:00-4:30 P.M. Active social interaction, defined as grooming, sniffing, biting, boxing, wrestling, following and crawling over or under, was scored using a stopwatch (Sportsline model no. 226, 1/100 sec. discriminability). The number of episodes of rearing (animal completely raises up its body on its hind limbs), grooming (licking, biting, scratching of body), and face washing (i.e. hands are moved repeatedly over face), and number of squares crossed were scored. Passive social interaction (animals are lying beside or on top of each other) was not scored. All behaviors were assessed later by an observer who was blind as to the treatment of each pair. At the end.of each test, the box was thoroughly wiped with moistened paper towels.
Male albino Sprague-Dawley rats (Taconic Farms, N.Y.) were housed in pairs under a 12 hr light dark cycle (lights on at 0700 hrs.) with free access to food and water.
Example 92 was dissolved in 100% DMSO (Sigma Chemical Co., St. Louis, Mo.). Chlordiazepoxide (purchased from Sigma Chemical Co., St. Louis, Mo.) was dissolved in double distilled water. The vehicle consisted of 50% DMSO (v/v). All drug solutions were made up 10 minutes prior to injection and the solutions were discarded.
Example 34 was dissolved in 5% lactic acid, v/v. The vehicle consisted of 100% dimethylacetamide (DMA) and this was used to make up all drug solutions. All drug solutions were made up fresh each day and any unused solutions were discarded at the end of the test day. The volume of drug solution administered was 1 ml/kg.
The social interaction data (time interacting, rearing and squares crossed) were subjected to a randomized, one-way ANOVA and post hoc tests conducted using the Student-Newman-Keuls test. The data were subjected to a test of normality (Shapiro-Wilk test). The data were analyzed using the GBSTAT program, version 6.5 (Dynamics Microsystems, Inc., Silver Spring, Md., 1997). All data are presented as means ±S.E.M.

T1 sequence (P08908 whole entry): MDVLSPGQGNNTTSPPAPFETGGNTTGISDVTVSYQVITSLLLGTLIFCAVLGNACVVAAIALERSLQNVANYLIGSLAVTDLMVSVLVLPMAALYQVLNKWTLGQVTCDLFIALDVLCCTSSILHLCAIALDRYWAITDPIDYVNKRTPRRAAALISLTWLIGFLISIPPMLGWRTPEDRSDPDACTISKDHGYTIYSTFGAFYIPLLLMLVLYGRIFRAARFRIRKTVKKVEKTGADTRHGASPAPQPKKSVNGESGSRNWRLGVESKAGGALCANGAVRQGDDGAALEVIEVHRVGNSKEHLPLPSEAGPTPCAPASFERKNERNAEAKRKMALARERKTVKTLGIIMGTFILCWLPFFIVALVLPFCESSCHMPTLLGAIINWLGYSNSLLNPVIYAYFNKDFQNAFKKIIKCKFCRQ

Structure (SMILES) | Ki [1] | overall profile in the Social Interaction Test (conclusion in words) [2] | ataxia or sedation accompanying decreased locomotor activity ([2]; 100 mg/kg i.p.) | social interaction of familiar cage mates ([2]; familiar cage mates, another study (not reported)) | stereotypes or aggressive behaviors ([2]; i.p., Social Interaction Test)
Cc1ccc(Nc2cc(N3CCCCC3)nc(N3CCN(c4ncccc4C(F)(F)F)CC3)n2)cc1 [Example 34] | > 50 µM | produces an anxiolytic-like action in the social interaction test | – | – | –
O=C1C(=Nc2cccc(C(F)(F)F)c2)c2ccccc2N1c1ccccc1 [Example 92, 1-PHENYL-3-[[3-(TRIFLUOROMETHYL)PHENYL]IMINO]-1,3-DIHYDRO-2H-INDOL-2-ONE] | > 50 µM | has the profile of an anxiolytic-like drug in the Social Interaction Test | did not appear to be accompanied by ataxia or sedation | no significant increase in interaction | did not elicit stereotypes or produce aggressive behaviors
